# Reference: ChEMBL document CHEMBL6109139, “Rational Design of the First Dual Agonist at Trace Amine-Associated Receptor 1 and 5-HT2C Receptors Based on Binding Pocket Similarity for the Treatment of Schizophrenia and Alzheimer's Disease-Related Psychosis” (J Med Chem, 2025)
# Columns and labels:
# [1] = molecular target: T1, 5-hydroxytryptamine receptor 2C (Homo sapiens) (UniProt P28335); experiment: Agonist activity at recombinant human 5-HT2CR expressed in HEK293 cells incubated for 2 hrs by measuring maximum efficacy by FLIPR calcium assay relative to control; format: functional, cell-based; settings: filed as agonist
# T1 sequence (whole entry): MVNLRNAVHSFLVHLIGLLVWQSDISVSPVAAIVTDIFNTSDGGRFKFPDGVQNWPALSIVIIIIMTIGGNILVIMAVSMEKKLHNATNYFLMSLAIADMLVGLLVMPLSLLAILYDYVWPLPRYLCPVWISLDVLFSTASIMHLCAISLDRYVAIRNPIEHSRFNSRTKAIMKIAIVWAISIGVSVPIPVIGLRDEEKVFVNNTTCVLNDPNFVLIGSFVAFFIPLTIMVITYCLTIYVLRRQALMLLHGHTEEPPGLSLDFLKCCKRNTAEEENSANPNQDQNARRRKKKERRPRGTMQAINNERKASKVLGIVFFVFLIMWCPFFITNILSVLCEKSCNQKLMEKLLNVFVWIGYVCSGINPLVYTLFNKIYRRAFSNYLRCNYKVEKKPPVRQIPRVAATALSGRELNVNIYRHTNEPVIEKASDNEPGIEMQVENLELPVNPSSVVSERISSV
# [2] = Metabolic stability in mouse liver microsomes assessed as intrinsic clearance at 1 uM incubated for 60 mins by LC-MS/MS analysis; format: ADME, Microsome; settings: read-out: CLH
# [3] = molecular target: Cytochrome P450 1A2 (Homo sapiens, UniProt P05177); experiment: Inhibition of CYP1A2 in human liver microsomes in presence of NADPH by LC-MS/MS analysis; format: ADME, Microsome
# [4] = molecular target: Cytochrome P450 3A4 (Homo sapiens, UniProt P08684); experiment: Inhibition of CYP3A4 in human liver microsomes in presence of NADPH by LC-MS/MS analysis; format: ADME, Microsome
# [5] = molecular target: 5-hydroxytryptamine receptor 2C (Mus musculus) (UniProt P34968); experiment: Agonist activity at mouse 5-HT2CR by measuring maximum efficacy relative to control; format: functional; settings: filed as agonist
# [6] = molecular target: T2, D(2) dopamine receptor (Homo sapiens, UniProt P14416); experiment: Antagonist activity at human D2L receptor expressed in Flp-In-CHO cells; format: cell-based
# [7] = molecular target: T2, D(2) dopamine receptor; experiment: Antagonist activity at human D2S receptor expressed in Flp-In-CHO cells; format: cell-based
# [8] = molecular target: 5-hydroxytryptamine receptor 2B (Homo sapiens) (UniProt P41595); experiment: Binding affinity to 5-HT2B (unknown origin) at 10 uM by radioligand binding assay relative to control
# [9] = molecular target: D(1A) dopamine receptor (Homo sapiens) (UniProt P21728); experiment: Binding affinity to D1 receptor (unknown origin) at 10 uM by radioligand binding assay relative to control
# [10] = molecular target: Muscarinic acetylcholine receptor M3 (Homo sapiens) (UniProt P20309); experiment: Binding affinity to M3 receptor (unknown origin) at 10 uM by radioligand binding assay relative to control
# [11] = molecular target: Kappa-type opioid receptor (Homo sapiens) (UniProt P41145); experiment: Binding affinity to op-kappa receptor (unknown origin) at 10 uM by radioligand binding assay relative to control
# [12] = molecular target: cGMP-inhibited 3',5'-cyclic phosphodiesterase 3A (Homo sapiens) (UniProt Q14432); experiment: Binding affinity to PDE3A receptor (unknown origin) at 10 uM by radioligand binding assay relative to control
# [13] = molecular target: Voltage-gated inwardly rectifying potassium channel KCNH2 (Homo sapiens, UniProt Q12809); experiment: Inhibition of human ERG expressed in CHO cells by whole cell patch clamp technique; format: toxicity, cell-based
# [14] = molecular target: Glutamate [NMDA] receptor (Homo sapiens) (UniProt Q05586+Q12879+Q13224+O15399+O60391+Q14957+Q8TCU5); experiment: Binding affinity to NMDA receptor (unknown origin) at 10 uM by radioligand binding assay relative to control; format: protein-complex assay
# [15] = species on record: Homo sapiens; experiment: Binding affinity to CCKa (unknown origin) at 10 uM by radioligand binding assay relative to control
# [16] = Cardiotoxicity in conscious cynomolgus monkey assessed as change in systolic pressure at 3.125 to 12.5 mg/kg, IG measured within 25 hrs; format: toxicity, organism-based, Macaca fascicularis; settings: in vivo, po, dose 3.125-12.5 mg/kg
# [17] = Cardiotoxicity in conscious cynomolgus monkey assessed as arrhythmia at 3.125 to 12.5 mg/kg, IG measured within 24 hrs; format: toxicity, organism-based, Macaca fascicularis; settings: in vivo, po, dose 3.125-12.5 mg/kg
# [18] = Toxicity in male Sprague-Dawley rat assessed as suppression of body weight gain at 7.5 mg/kg, po administered once daily for 4 weeks and measured weekly twice; format: organism-based; settings: in vivo, 672 h
# [19] = Toxicity in female Sprague-Dawley rat assessed as suppression of body weight gain at 7.5 mg/kg, po administered once daily for 4 weeks and measured after 4 weeks; format: organism-based; settings: in vivo, 1344 h, time 8 weeks
# [20] = Toxicity in female Sprague-Dawley rat assessed as change in prolactin level at 2.5 to 7.5 mg/kg, po administered once daily for 4 weeks and measured after 4 weeks; format: organism-based; settings: in vivo, 1344 h, dose 2.5-7.5 mg/kg, time 8 weeks
# [21] = Toxicity in female Sprague-Dawley rat assessed as slow respiration at 7.5 mg/kg, po administered once daily for 4 weeks; format: organism-based; settings: in vivo, 672 h
# [22] = Toxicity in male Sprague-Dawley rat assessed as irritability at 2.5 mg/kg, po administered once daily for 4 weeks; format: organism-based; settings: in vivo, 672 h
# [23] = Toxicity in female Sprague-Dawley rat assessed as irritability at 2.5 mg/kg, po administered once daily for 4 weeks and measured after 4 weeks; format: organism-based; settings: in vivo, 1344 h, time 8 weeks
# [24] = Toxicity in male Sprague-Dawley rat assessed as irritability at 2.5 mg/kg, po administered once daily for 4 weeks and measured after 4 weeks; format: organism-based; settings: in vivo, 1344 h, time 8 weeks
# [25] = Toxicity in male Sprague-Dawley rat assessed as change in urinalysis at 2.5 to 7.5 mg/kg, po administered once daily for 4 weeks and measured after 4 weeks; format: organism-based; settings: in vivo, 1344 h, dose 2.5-7.5 mg/kg, time 8 weeks
# [26] = Toxicity in male Sprague-Dawley rat assessed as change in bone marrow smears at 2.5 to 7.5 mg/kg, po administered once daily for 4 weeks and measured after 4 weeks; format: organism-based; settings: in vivo, 1344 h, dose 2.5-7.5 mg/kg, time 8 weeks
# [27] = Toxicity in male Sprague-Dawley rat assessed as corneal epithelial degeneration at 2.5 to 7.5 mg/kg, po administered once daily for 4 weeks and measured after 4 weeks; format: organism-based; settings: in vivo, 1344 h, dose 2.5-7.5 mg/kg, time 8 weeks
# [28] = Toxicity in female Beagle dog assessed as change in prolactin at 0.75 to 2.5 mg/kg, IG administered once daily for 4 weeks and measured after 4 weeks; format: organism-based, Canis lupus familiaris; settings: in vivo, po, 1344 h, dose 0.75-2.5 mg/kg, time 8 weeks
# [29] = Toxicity in male Beagle dog assessed as change in clinical chemistry at 0.75 to 2.5 mg/kg, IG administered once daily for 4 weeks and measured after 4 weeks; format: organism-based, Canis lupus familiaris; settings: in vivo, po, 1344 h, dose 0.75-2.5 mg/kg, time 8 weeks
# [30] = Toxicity in female Beagle dog assessed as change in clinical chemistry at 0.75 to 2.5 mg/kg, IG administered once daily for 4 weeks and measured after 4 weeks; format: organism-based, Canis lupus familiaris; settings: in vivo, po, 1344 h, dose 0.75-2.5 mg/kg, time 8 weeks
# [31] = Toxicity in male Beagle dog assessed as change in organ ratios at 0.75 to 2.5 mg/kg, IG administered once daily for 4 weeks and measured after 4 weeks; format: organism-based, Canis lupus familiaris; settings: in vivo, po, 1344 h, dose 0.75-2.5 mg/kg, time 8 weeks
# [32] = Toxicity in male Beagle dog assessed as somnolence at 2.5 mg/kg, IG administered once daily for 4 weeks; format: organism-based, Canis lupus familiaris; settings: in vivo, po, 672 h
# T2 sequence (P14416 whole entry): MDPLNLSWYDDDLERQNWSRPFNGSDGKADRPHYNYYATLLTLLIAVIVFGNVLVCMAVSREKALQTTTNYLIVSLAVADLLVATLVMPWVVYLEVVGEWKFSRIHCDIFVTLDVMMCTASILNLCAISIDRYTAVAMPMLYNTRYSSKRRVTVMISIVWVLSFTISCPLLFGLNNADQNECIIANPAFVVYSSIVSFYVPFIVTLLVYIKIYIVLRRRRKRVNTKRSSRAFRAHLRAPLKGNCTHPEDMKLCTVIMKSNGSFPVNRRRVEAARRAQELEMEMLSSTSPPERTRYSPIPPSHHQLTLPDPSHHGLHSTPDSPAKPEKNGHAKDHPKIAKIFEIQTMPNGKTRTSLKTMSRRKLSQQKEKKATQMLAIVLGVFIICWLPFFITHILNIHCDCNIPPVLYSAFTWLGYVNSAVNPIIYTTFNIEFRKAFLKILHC
# Cytochrome P450 3A4, sequence (P08684 whole entry): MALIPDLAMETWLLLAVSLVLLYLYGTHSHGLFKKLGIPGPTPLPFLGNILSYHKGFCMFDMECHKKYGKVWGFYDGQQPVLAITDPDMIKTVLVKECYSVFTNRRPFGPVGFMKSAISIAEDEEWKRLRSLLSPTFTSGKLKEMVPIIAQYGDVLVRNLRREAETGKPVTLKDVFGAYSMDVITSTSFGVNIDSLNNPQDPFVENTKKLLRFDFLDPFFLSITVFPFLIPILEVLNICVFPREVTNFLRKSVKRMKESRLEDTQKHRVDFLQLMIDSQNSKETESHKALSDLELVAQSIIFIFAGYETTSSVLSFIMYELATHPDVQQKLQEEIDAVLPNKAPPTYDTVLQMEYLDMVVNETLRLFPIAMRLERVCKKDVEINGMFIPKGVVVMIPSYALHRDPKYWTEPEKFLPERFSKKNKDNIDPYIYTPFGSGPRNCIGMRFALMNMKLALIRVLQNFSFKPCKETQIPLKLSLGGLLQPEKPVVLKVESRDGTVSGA
# Kappa-type opioid receptor (Homo sapiens), sequence (P41145 whole entry): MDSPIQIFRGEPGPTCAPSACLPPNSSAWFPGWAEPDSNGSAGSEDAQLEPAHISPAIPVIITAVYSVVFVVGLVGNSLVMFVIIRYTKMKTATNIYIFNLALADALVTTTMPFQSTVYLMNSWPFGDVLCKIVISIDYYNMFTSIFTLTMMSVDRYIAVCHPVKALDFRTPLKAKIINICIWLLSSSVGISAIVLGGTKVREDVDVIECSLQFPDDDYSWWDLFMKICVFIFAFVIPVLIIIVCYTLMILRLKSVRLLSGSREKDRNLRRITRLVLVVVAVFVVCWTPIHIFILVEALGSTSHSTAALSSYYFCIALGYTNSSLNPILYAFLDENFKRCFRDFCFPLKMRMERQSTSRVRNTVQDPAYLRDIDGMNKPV
# 5-hydroxytryptamine receptor 2B (Homo sapiens), sequence (P41595 whole entry): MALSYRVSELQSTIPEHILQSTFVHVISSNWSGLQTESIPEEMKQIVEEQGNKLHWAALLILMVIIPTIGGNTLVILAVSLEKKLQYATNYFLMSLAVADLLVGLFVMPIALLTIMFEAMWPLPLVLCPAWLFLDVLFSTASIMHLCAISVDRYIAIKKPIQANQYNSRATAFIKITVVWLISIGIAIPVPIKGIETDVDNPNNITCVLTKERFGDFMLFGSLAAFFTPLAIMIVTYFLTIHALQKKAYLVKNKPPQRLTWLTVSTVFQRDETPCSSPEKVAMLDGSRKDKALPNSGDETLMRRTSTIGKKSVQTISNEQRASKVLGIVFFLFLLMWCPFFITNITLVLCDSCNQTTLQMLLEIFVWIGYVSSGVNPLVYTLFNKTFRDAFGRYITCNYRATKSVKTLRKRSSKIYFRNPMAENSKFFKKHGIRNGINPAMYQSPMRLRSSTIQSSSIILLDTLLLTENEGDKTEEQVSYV
# Muscarinic acetylcholine receptor M3 (Homo sapiens), sequence (P20309 whole entry, looked up): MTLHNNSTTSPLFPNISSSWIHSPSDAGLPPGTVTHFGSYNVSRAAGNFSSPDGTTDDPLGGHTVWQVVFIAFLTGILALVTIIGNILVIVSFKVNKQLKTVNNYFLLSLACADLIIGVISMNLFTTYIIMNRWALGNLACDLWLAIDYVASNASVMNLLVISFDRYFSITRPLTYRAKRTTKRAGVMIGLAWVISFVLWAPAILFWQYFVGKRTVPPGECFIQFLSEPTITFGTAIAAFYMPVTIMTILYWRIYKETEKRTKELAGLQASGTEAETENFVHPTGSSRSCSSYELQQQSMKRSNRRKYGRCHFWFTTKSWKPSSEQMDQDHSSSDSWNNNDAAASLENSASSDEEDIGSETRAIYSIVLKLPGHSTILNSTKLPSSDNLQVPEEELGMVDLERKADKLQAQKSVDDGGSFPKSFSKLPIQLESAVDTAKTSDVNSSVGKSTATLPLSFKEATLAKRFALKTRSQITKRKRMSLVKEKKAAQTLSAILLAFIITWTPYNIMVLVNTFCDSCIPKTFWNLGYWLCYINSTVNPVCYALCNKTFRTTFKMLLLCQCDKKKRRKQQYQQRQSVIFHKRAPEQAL
# D(1A) dopamine receptor (Homo sapiens), sequence (P21728 whole entry): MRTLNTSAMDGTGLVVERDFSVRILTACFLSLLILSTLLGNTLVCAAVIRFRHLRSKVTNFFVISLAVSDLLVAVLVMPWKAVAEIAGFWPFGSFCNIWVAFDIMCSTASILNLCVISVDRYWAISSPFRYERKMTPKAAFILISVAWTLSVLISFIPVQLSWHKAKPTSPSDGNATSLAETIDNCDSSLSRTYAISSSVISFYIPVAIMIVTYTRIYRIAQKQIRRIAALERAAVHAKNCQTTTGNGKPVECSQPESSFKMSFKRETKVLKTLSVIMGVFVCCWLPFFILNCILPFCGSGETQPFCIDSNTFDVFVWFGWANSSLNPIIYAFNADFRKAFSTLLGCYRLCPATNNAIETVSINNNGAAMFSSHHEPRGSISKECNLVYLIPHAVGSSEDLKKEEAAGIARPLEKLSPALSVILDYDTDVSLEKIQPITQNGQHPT
# 5-hydroxytryptamine receptor 2C (Mus musculus), sequence (P34968 whole entry): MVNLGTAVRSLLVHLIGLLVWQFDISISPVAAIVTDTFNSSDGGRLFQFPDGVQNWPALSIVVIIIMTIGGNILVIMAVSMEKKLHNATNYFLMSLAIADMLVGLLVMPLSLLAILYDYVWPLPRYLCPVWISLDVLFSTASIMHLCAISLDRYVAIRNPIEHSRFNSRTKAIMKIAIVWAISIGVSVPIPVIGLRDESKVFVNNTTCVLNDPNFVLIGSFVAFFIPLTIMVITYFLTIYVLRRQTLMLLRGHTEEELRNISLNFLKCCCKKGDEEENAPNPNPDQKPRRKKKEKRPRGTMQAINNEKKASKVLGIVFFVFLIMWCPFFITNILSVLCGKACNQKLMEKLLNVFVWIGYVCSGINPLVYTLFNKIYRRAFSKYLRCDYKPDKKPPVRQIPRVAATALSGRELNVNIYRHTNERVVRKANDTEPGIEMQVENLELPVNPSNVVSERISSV
# cGMP-inhibited 3',5'-cyclic phosphodiesterase 3A (Homo sapiens), sequence (Q14432 whole entry): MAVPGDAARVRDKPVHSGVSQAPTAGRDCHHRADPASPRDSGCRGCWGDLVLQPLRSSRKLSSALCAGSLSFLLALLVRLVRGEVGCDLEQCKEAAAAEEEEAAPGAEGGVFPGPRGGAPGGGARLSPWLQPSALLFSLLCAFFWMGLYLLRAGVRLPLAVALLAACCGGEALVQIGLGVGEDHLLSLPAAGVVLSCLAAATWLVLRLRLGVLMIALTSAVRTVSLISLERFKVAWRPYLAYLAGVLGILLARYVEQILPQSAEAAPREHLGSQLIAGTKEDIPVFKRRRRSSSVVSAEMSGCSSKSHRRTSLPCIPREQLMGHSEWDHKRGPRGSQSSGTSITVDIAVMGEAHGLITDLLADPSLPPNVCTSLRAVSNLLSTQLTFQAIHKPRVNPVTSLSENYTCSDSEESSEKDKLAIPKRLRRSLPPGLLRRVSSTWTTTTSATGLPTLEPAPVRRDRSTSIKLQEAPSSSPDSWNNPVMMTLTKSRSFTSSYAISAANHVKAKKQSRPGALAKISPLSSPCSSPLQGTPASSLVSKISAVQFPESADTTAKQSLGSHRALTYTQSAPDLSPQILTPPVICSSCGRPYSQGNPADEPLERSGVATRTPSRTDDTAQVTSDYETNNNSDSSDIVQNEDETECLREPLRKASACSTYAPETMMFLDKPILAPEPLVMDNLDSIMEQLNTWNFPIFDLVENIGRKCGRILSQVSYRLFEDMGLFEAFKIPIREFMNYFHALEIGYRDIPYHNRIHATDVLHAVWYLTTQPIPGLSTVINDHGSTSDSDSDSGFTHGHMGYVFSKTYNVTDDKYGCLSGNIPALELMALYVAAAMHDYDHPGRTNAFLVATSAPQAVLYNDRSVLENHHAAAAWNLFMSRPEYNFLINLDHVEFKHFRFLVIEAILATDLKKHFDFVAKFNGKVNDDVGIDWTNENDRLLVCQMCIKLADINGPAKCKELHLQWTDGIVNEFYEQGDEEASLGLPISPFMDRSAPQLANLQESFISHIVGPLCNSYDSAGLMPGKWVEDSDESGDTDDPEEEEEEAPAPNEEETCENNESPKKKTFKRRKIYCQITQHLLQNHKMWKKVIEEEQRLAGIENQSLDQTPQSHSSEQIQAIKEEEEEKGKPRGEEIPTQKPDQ
# Cytochrome P450 1A2, sequence (P05177 whole entry): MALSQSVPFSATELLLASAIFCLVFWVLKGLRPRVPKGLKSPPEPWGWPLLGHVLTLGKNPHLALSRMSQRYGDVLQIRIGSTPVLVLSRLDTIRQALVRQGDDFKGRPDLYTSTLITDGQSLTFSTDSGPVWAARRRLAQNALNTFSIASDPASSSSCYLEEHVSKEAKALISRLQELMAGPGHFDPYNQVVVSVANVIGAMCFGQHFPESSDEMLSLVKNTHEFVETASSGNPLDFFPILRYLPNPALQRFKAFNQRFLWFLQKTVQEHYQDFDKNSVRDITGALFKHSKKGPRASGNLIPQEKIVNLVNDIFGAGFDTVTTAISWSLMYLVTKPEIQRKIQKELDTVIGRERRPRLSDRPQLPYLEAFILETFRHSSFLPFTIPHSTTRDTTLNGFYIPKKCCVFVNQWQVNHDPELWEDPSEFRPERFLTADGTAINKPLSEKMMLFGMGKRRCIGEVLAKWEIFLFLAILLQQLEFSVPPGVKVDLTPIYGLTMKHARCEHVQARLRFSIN
smiles,measurement,setting,value
c1cc2c(s1)[C@@H]1CNCCN1CC2,Emax,[1],100%
same,CLint scaled at 1 µM,[2],< 29.7 mL/min/kg
same,IC50,[3],> 50 µM
same,IC50,[4],> 50 µM
same,Emax,[5],103%
same,IC50,[6],> 100 µM
same,IC50,[7],> 100 µM
same,Activity,[8],45.3%
same,Activity,[9],45.9%
same,Activity,[10],23.8%
same,Activity,[11],4.07%
same,Activity,[12],3.89%
same,IC50,[13],> 30 µM
same,Activity,[14],4.53%
same,Activity,[15],1.26%
same,Activity,[16],Non-toxic
same,Activity,[17],Non-toxic
same,Activity,[18],Toxic
same,Activity,[19],Toxic
same,Activity,[20],Non-toxic
same,Activity,[21],Toxic
same,Activity,[22],Toxic
same,Activity,[23],Non-toxic
same,Activity,[24],Non-toxic
same,Activity,[25],Non-toxic
same,Activity,[26],Non-toxic
same,Activity,[27],Non-toxic
same,Activity,[28],Non-toxic
same,Activity,[29],Non-toxic
same,Activity,[30],Non-toxic
same,Activity,[31],Non-toxic
same,Activity,[32],Toxic
